Experimental data from PMC7893792 (ACS Omega, 2021).

B1: rOat3 (Rattus norvegicus) (protein)
chain: MTFSEILDRVGSMGPFQYLHVTLLALPVLGIANHNLLQIFTATTPVHHCRPPPNASIGPWVLPLDPNGKPEKCLRFVHLPNASLPNDTQRATEPCLDGWIYNSTRDTIVIEWDLVCSSNKLKEMAQSIFMAGILVGGPVIGELSDRFGRKPILTWSYLMLAASGSGAAFSPSLPVYMIFRFLCGCSISGISLSTVILNVEWVPTSMRAISSTSIGYCYTIGQFILSGLAYAIPQWRWLQLTSSAPFFIFSLLSWWVPESIRWLVLSGKYSKALKTLQRVATFNGKKEEGKKLTIEELKFNLQKDITSAKVKYGLSDLFRVSILRRVTFCLSLAWFSTGFAYYSLAMGVEEFGVNIYILQIIFGGVDIPAKFITILSLSYLGRRITQSFLLLLAGGAILALIFVPSEMQLLRTALAVFGKGCLSGSFSCLFLYTSELYPTVLRQTGMGISNVWARVGSMIAPLVKITGELQPFIPNVIFGTTALLGGSAAFFLLETLNRPLPETIEDIQNWHKQVQKTKQESEAEKASQIIPLKTGG

Experiments:
[1] = cited from earlier work
[2] = substrate: O=C(O)c1ccc(C(=O)O)c(-c2c3ccc(=O)cc-3oc3cc(O)ccc23)c1; assay: 6-CF uptake by rOat3-expressing HEK293 cells; format: cell-based, rat; conditions: other: HEK293-rOat3, 2 min, 37 °C, pH 7.4, 1-100 μM 6-CF

Row | Molecule | Binding to serum protein [1] [%] | Km [2] [µM]
1 | carboxyfluorescein | ~90 | 
2 | B1 |  | 2.52 ± 0.48
